Patent US6551583B2, “Antibiofouling method and apparatus for optical sensors” (Airak, Inc,, priority 2000, dated 2003)

Test: effectiveness of biocides for optrode protection against biofouling
Details: ppb concentrations

Compound: N#Cc1c(Cl)c(Cl)c(Cl)c(C#N)c1Cl [chlorothalonil]
- biocide effectiveness (optrode protection): effective even at ppb concentrations
